Laboratory results reported in US20050054006A1, “Combinatorial fluorescent library based on the styryl scaffold” (New York University, priority 2003, published 2005).

Experiments:
[1] = system: UACC-62 human melanoma cells; assay: Organelle localization in live cells by fluorescence microscopy; conditions: live UACC-62 cells, fluorescence microscope λex=405, 490, 570 nm; λem>510 nm
[2] = Fluorescence excitation/emission of the styryl dye library compounds; type: physicochemical; conditions: EX/EM peak no. 1

In the case of `COc1ccc(C=Cc2cc[n+](C)cc2)c2ccccc12.[I-]` [Compound A14], the LOCALIZATION [1] is reported as “MITO”, the “EM(nm)” value [2] is reported as 550 nm and the “EX(nm)” value [2] is reported as 430(broad) nm.

For `CN(C)c1ccc(C=Cc2cc[n+](C)cc2)cc1.[I-]` [Compound A19], the LOCALIZATION [1] was “MITO and NUCLEOLI”, the “EM(nm)” value [2] was 600 nm and the “EX(nm)” value [2] was 460 nm.

In the case of `CC(=O)Nc1ccc(C=Cc2ccc3ccccc3[n+]2C)cc1.[I-]` [Compound H18], the LOCALIZATION [1] is reported as “MITO and NUCLEOLI”, the “EM(nm)” value [2] is reported as 650 nm and the “EX(nm)” value [2] is reported as 430 nm.

In the case of `COc1ccc2c(ccc(C=Cc3ccc(OCc4ccccc4)c(OCc4ccccc4)c3)[n+]2C)c1.[I-]` [Compound I12], the LOCALIZATION [1] is reported as “VESICLE” and the “EM(nm)” value [2] is reported as 560 nm.

For `COc1ccc2c(ccc(C=Cc3ccc(N(C)C)cc3)[n+]2C)c1.[I-]` [Compound I19], the LOCALIZATION [1] was “NUCLEOLI” and the “EM(nm)” value [2] was 630 nm.

With `C[n+]1ccc(C=Cc2ccccc2[N+](=O)[O-])c2ccccc21.[I-]` [Compound G20] the LOCALIZATION [1] was “MITO”, the “EM(nm)” value [2] was 670 nm and the “EX(nm)” value [2] was 490-540 nm.

For `Cc1ccnc(-c2cc(/C=C/c3ccc(N(C)C)cc3)cc[n+]2C)c1.[I-]` [Compound J19], the LOCALIZATION [1] was “MITO”, the “EM(nm)” value [2] was 640 nm and the “EX(nm)” value [2] was 480 nm.

With `C[n+]1c(C=Cc2ccc(O)cc2)ccc2ccccc21.[I-]` [Compound H16] the LOCALIZATION [1] was “NUCLEOLI”, the “EM(nm)” value [2] was 630 nm and the “EX(nm)” value [2] was 450 nm.

For `CCc1ccc(C=C/C=C/c2ccc(N(C)C)cc2)[n+](C)c1.[I-]` [Compound E37], the LOCALIZATION [1] was “MITO and NUCLEOLI”, the “EM(nm)” value [2] was 670 nm and the “EX(nm)” value [2] was 520 nm.

With `CCc1ccc(C=Cc2c(OC)ccc3ccccc23)[n+](C)c1.[I-]` [Compound E23] the LOCALIZATION [1] was “CYTO”, the “EM(nm)” value [2] was 510 nm and the “EX(nm)” value [2] was 420(broad) nm.

With `Cc1ccc(C=Cc2cc[n+](C)c3ccccc23)cc1.[I-]` [Compound G8] the LOCALIZATION [1] was “MITO”, the “EM(nm)” value [2] was 650 nm and the “EX(nm)” value [2] was 440 nm.

In the case of `COc1ccc(C=Cc2cc[n+](C)c(-c3cc(C)ccn3)c2)cc1O.[I-]` [Compound J15], the LOCALIZATION [1] is reported as “VESICLE”, the “EM(nm)” value [2] is reported as 530 nm and the “EX(nm)” value [2] is reported as 340-440 nm.

For `CC(=O)Nc1ccc(/C=C/c2cc[n+](C)c3ccccc23)cc1.[I-]` [Compound G18], the LOCALIZATION [1] was “MITO”, the “EM(nm)” value [2] was 670 nm and the “EX(nm)” value [2] was 430 nm.

For `C[n+]1c(C=CCc2ccccc2)ccc2ccccc21.[I-]` [Compound H1], the LOCALIZATION [1] was “MITO” and the “EM(nm)” value [2] was 640 nm.

For `COc1ccccc1C=Cc1cc[n+](C)c2ccccc12.[I-]` [Compound G9], the LOCALIZATION [1] was “MITO”, the “EM(nm)” value [2] was 630 nm and the “EX(nm)” value [2] was 430 nm.

For `COc1cc(OC)c(OC)cc1C=Cc1cc[n+](C)c2ccccc12.[I-]` [Compound G38], the LOCALIZATION [1] was “VESICLE and CYTO and NUCLEI”, the “EM(nm)” value [2] was 640 nm and the “EX(nm)” value [2] was 420 nm.

In the case of `CCc1ccc(C=Cc2ccc(N(C)C)cc2)[n+](C)c1.[I-]` [Compound E19], the LOCALIZATION [1] is reported as “MITO”, the “EM(nm)” value [2] is reported as 580 nm and the “EX(nm)” value [2] is reported as 460(broad) nm.

With `CN(C)c1ccc(C=Cc2cc[n+](C)c3ccccc23)c2ccccc12.[I-]` [Compound G27] the LOCALIZATION [1] was “MITO”, the “EM(nm)” value [2] was 720 nm and the “EX(nm)” value [2] was 450-550(broad) nm.
